Measurements reported in US20040039027A1, “Benzimidazole compounds, process for producing the same and use thereof” (priority 2000, published 2004).

Test: Stability test in artificial gastric juice
Format: physicochemical
Conditions: artificial gastric juice with acetonitrile, pH 1.2, artificial gastric juice pH ca. 1.2 with acetonitrile, 37° C.; calculated assuming pseudo-first-order decomposition
Protocol: Stability Test in Artificial Gastric Juice
2-[[[3-Methyl-4-(2,2,2-trifluoroethoxy)-2-pyridyl]methyl]sulfinyl]-1H-benzimidazole(lansoprazole) and the compounds (ca. 1-2 mg) of Examples 1, 2 and 18 were respectively dissolved in acetonitrile (1 mL). To each solution (0.2 mL) were added acetonitrile (1 mL) and artificial gastric juice (3 mL, a solution prepared by dissolving sodium chloride (2.0 g) in hydrochloric acid (7.0 mL) and adding water to the amount of 1000 mL, pH ca. 1.2), and the stability of each compound after preservation at 37° C. was examined. Samples were taken immediately after addition of acetonitrile and artificial gastric juice, and 4, 8, 12, 16 and 20 hours thereafter, analyzed under the following HPLC analysis conditions, and the half-life was calculated on the assumption that the decomposition of the compound was a pseudo-first-order reaction. […]
detection wavelength: UV 285 nm column: YMC Pro C18 75 mm×4.6 mm I.D. mobile phase: the proportion of mobile phase A (0.01 mol/L aqueous ammonium acetate solution) and mobile phase B (acetonitrile) was changed with the lapse of time as in the following.
10 min. from immediately after addition: mobile phase A/mobile phase B=60/40→10/90 10 min. to 15 min.: mobile phase A/mobile phase B=10/90
15.1 min. to 20 min.: mobile phase A/mobile phase B=60/40 flow rate: 1.0 mL/min. column temperature: 25° C.

Row | SMILES | half-life [h]
1 | Cc1c(OCC(F)(F)F)ccnc1C[S+]([O-])c1nc2ccccc2n1COC(=O)c1ccccc1 (stereo not drawn) [Example 1, [2-[[[3-Methyl-4-(2,2,2-trifluoroethoxy)-2-pyridinyl]methyl]sulfinyl]-1H-benzimidazol-1-yl]methyl benzoate] | ≥ 4
2 | CCCOC(=O)OCn1c([S+]([O-])Cc2nccc(OCC(F)(F)F)c2C)nc2ccccc21 (stereo not drawn) [Example 18, [2-[[[3-Methyl-4-(2,2,2-trifluoroethoxy)-2-pyridinyl]methyl]sulfinyl]-1H-benzimidazol-1-yl]methyl propyl carbonate] | ≥ 4
3 | Cc1c(OCC(F)(F)F)ccnc1C[S+]([O-])c1nc2ccccc2[nH]1 (stereo not drawn) [lansoprazole, 2-[[[3-Methyl-4-(2,2,2-trifluoroethoxy)-2-pyridyl]methyl]sulfinyl]-1H-benzimidazole, reference compound] | < 0.03
